Where “and” joins values, the source holds several entries; their conditions need not be identical. Equal entries are not always repeated.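 How tested: cells in 96-well plates exposed to compound for 48 hours at five concentrations. The concentration for 50% growth inhibition is given as GI50. The concentration for full growth arrest is given as TGI.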 Where a SMILES comes first, the peptide text is derived from it. [ ]: non-standard residue; d: D form. Phe(ol) = N[C@H](CO)Cc1ccccc1; Aib = CC(C)(N)C(=O)O
test system: MDA-MB-468 breast; test: growth of human tumour cells (NCI), 48 h

SMILES	GI50	TGI
Cc1ccc(C)c(N2CCN(c3ccncc3N)CC2)c1	3.4 µM	18 µM
CCCCCn1sc(=O)n(Cc2ccc(CNC(=O)C(C)c3ccc(CC(C)C)cc3)cc2)c1=O (configuration not stated)	0.945 µM	2.45 µM
O=C(/C=C/c1ccco1)Nc1ncc(Cc2cc(Cl)ccc2Cl)s1	0.15 µM	> 46 µM
COc1cc(F)c(F)c(Nc2ccc(I)cc2F)c1NS(=O)(=O)C1(CC(O)CO)CC1 (configuration not stated)	14.4 µM	47.7 µM
Cc1cnc(C(=O)Nc2nc3ccc(S(=O)(=O)Nc4ccc(C(C)(C)C)cc4)cc3[nH]2)cn1	0.27 µM	1.73 µM
CC(=O)NC(C)(C)C(=O)N1CCC[C@H]1C(=O)NC(C)(C)C(=O)N[C@@H](C)C(=O)NC(C)(C)C(=O)NC(C)(C)C(=O)N[C@@H](CCC(N)=O)C(=O)NC(C)(C)C(=O)N[C@H](C(=O)NC(C)(C)C(=O)NCC(=O)N[C@@H](CC(C)C)C(=O)NC(C)(C)C(=O)N1CCC[C@H]1C(=O)N[C@H](C(=O)NC(C)(C)C(=O)NC(C)(C)C(=O)N[C@@H](CCC(N)=O)C(=O)N[C@@H](CCC(N)=O)C(=O)N[C@H](CO)Cc1ccccc1)C(C)C)C(C)C (Ac-[Aib]P[Aib]A[Aib][Aib]Q[Aib]V[Aib]GL[Aib]PV[Aib][Aib]QQ[Phe(ol)])	0.209 µM	2.36 µM
COC(=O)c1sc(-n2cnc3cc(OC)c(OC)cc32)cc1OCc1ccccc1C(F)(F)F	3.72 µM	> 25 µM
Nc1nc(SCC#CCCl)c2[nH]cnc2n1	1.88 µM	6.38 µM
N#Cc1ccc2c(-c3ccnc(NC4CC4)n3)c(-c3ccc(F)cc3)nn2c1	> 24.2 µM	> 25 µM
COc1cc([C@@H]2c3cc4c(cc3[C@@H](OC3OC5COC(C)OC5C(O)C3O)[C@H]3COC(=O)[C@H]23)OCO4)cc(OC)c1O (some centres not stated)	2.73 µM and 2.12 µM	22.3 µM and 18.7 µM
ClC/C=C/CSc1ncnc2nc[nH]c12	> 100 µM	> 100 µM
COc1cc(C(=O)/C=C/c2c[nH]c3ccccc23)cc(OC)c1OC	0.0857 µM	1.61 µM
COc1ccc(/C=C\c2cc(OC)c(OC)c(OC)c2)cc1NC(=O)/C=C/c1cc(OC)c(OC)c(OC)c1	1.82 µM	6.66 µM
O=C(CC1(O)C(=O)Nc2ccc(Cl)cc21)c1ccc(C(=O)NCC2CCC3(CC2)OOC2(CCCCC2)OO3)cc1 (configuration not stated)	2.12 µM	5.66 µM
COc1cc(/C=N\Nc2ccccc2)ccc1OC(=O)c1ccccc1	2.74 µM	34.8 µM
CCCCCCCCCC(=O)Oc1ccc(/C(=C(/C)c2ccccc2)c2ccc(OCCN3CCCC3)cc2)cc1	7.25 µM	14.7 µM
N#Cc1cnn(C(=O)c2nn(-c3ccc(Cl)cc3)cc2O)c1N	0.948 µM	15.1 µM
CC(C)(C)n1cc(-c2ccnc(NCCCNS(=O)(=O)c3cccc4ccccc34)c2)c(-c2cccc(O)c2)n1	2.04 µM	5.39 µM
CC[C@H](C)[C@H](NC(=O)CN(C)C)C(=O)N(C)[C@H](C[C@@H](OC(C)=O)c1nc(C(=O)NC23C4C5C2C2C3C4C52C(=O)OC)cs1)C(C)C (some centres not stated)	0.147 µM	> 33.2 µM
CCNC(=O)N1CCc2cc(OC)c(OCCc3ccc(OC)cc3)cc2C1c1ccc([N+](=O)[O-])cc1C (configuration not stated)	1.37 µM	4.78 µM
CNC(=O)c1sc(-n2cnc3cc(OC)c(OC)cc32)cc1OCc1ccccc1C(F)(F)F	> 19 µM	> 25 µM

SMILES	GI50	TGI
COc1ccc([C@@H]2[C@@H](Cl)C(=O)N2c2cc(OC)c(OC)c(OC)c2)cc1C	0.0414 µM	> 100 µM
CC(Nc1c(C#N)cnc2ccc(-c3cncc(O)c3)cc12)c1ccccc1 (configuration not stated)	0.913 µM	3.43 µM
COc1ccc(/C(=C(\c2ccccc2)[N+](=O)[O-])c2ccc(OCCN3CCCC3)cc2)cc1	1.75 µM	4.27 µM
CC1CCc2c(C(=O)Nc3ncc(Cc4cccc([N+](=O)[O-])c4)s3)csc2C1 (configuration not stated)	0.345 µM	> 100 µM
COc1cc(OC)c(/C=C/S(=O)(=O)Cc2ccc(OC)c(N)n2)c(OC)c1	< 0.01 µM	> 100 µM
CN1CCN(Cc2ccc(NC(=O)c3cncc(C#Cc4c(N)ncc5ccccc45)c3)cc2C(F)(F)F)CC1	0.818 µM	1.63 µM
O=C1c2ccccc2-c2cn(Cc3ccccc3)c3cccc(c23)C1c1cccnc1 (configuration not stated)	2 µM	37.6 µM
C#Cc1nc(C2=C(C)/C(=N/OCc3ccccc3)CC2)cs1	17.8 µM	94.7 µM
COc1cccc(/C=C\C(=O)c2ccccc2)c1	2.14 µM	6.49 µM
O=C(NOCCO)c1ccc2cncn2c1Nc1ccc(I)cc1F	> 10 µM and 22.3 µM	> 100 µM
COc1cc(/C=N/NC(=O)c2cnn3c2NC(c2ccccc2)C3)ccc1OCc1ccccc1 (configuration not stated)	0.318 µM	2.16 µM
CO/N=C1\CCc2c(sc(NC(=O)c3cccc(C(F)(F)F)c3)c2C(N)=O)C1	1.5 µM	5.91 µM
CC/C(=C/c1ccc(OC)cc1)[N+](=O)[O-]	1.83 µM	3.63 µM
Cc1cc2nc3c4cc(C#N)ccc4n(CCN(C)C)c3nc2cc1C	1.33 µM	3.91 µM
NS(=O)(=O)c1cccc(Nc2cc(-c3ccc(F)cc3)[nH]n2)c1	> 23.6 µM	> 25 µM
C#CCn1cccc1CNc1ccc(OC)cc1	14.2 µM	60.5 µM
COC(=O)[C@]12CC[C@@H](C)[C@H](C)[C@@H]1C1=CC[C@@H]3[C@@]4(C)C[C@@H](OC(C)=O)[C@H](OC(C)=O)[C@@](C)(COC(C)=O)[C@@H]4[C@H](O)C[C@@]3(C)[C@]1(C)CC2	0.832 µM	46 µM
Oc1ccccc1/C=N\NC(=S)Nc1ccc(F)cc1	2.53 µM	26.5 µM
O=C(NCCN1CCOCC1)c1cc2c(Oc3ccc(NC(=O)C4(C(=O)Nc5ccc(F)cc5)CC4)cc3)ccnc2[nH]1	2.31 µM	13.6 µM
O=C1c2ccc3c4c(ccc(c24)C(=O)N1CCCCO)C(=O)N(CCCCO)C3=O	1.21 µM	3.22 µM
